Results reported in ChEMBL document CHEMBL1201862, “PubChem BioAssay data set” (2004).
The source made the active and inactive calls.

Experiments:
[1] = target: Hexokinase-1 (Homo sapiens, UniProt P19367); assay: SAR analysis of small molecule inhibitors of hexokinase domain containing I (HKDC1) in the hexokinase 1 selectivity assay. [Related pubchem assays (depositor defined):AID493160, AID493190]; assay type: functional
[2] = target: T1, Hexokinase HKDC1 (Homo sapiens, UniProt Q2TB90); assay: SAR analysis of small molecule inhibitors of hexokinase domain containing I (HKDC1). [Related pubchem assays (depositor defined):AID493160, AID493190]; assay type: functional
T1 sequence (Q2TB90 whole entry): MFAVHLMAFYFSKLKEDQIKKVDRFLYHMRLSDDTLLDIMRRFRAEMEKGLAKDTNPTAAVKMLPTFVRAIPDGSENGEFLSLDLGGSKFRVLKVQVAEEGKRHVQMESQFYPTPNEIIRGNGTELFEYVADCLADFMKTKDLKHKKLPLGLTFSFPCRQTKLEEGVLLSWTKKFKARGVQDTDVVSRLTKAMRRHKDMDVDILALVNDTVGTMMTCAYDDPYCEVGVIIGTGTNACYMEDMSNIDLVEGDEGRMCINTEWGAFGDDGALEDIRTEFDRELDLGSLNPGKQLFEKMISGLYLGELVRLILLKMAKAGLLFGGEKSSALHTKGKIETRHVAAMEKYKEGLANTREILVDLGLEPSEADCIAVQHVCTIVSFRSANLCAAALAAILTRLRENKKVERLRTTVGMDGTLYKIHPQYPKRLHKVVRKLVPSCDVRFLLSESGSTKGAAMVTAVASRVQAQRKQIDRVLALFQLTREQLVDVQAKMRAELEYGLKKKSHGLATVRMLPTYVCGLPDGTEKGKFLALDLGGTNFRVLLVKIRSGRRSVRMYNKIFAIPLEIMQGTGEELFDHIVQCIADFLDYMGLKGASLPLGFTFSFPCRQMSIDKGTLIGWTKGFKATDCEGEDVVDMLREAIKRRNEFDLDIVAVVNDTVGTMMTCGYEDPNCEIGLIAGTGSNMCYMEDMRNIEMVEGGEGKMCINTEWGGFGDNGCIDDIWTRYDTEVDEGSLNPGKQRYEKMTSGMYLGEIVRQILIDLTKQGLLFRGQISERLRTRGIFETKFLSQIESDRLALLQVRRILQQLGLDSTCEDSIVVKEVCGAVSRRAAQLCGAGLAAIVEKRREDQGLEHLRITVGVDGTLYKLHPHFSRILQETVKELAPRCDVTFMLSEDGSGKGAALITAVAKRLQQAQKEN

[3] = target: Beta-2 adrenergic receptor (Homo sapiens, UniProt P07550); assay: ADRB2 activation measured by internalization – cell-based, FAP fluorogen, flow cytometry, cherry pick 1, dose response (AID 588763); assay type: functional
Beta-2 adrenergic receptor, sequence (P07550 whole entry): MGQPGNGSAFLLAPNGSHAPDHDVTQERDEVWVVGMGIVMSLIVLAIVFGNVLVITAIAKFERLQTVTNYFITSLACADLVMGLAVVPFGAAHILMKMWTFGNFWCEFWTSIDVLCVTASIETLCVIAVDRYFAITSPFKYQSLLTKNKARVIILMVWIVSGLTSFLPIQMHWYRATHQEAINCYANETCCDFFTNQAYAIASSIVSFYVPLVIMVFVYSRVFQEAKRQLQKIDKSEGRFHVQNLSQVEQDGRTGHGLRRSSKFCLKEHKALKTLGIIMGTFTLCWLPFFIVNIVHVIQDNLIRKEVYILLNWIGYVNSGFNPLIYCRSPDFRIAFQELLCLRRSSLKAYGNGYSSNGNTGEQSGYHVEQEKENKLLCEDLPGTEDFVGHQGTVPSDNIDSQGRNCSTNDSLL

[4] = target: Serine/threonine-protein phosphatase (Candida dubliniensis (strain CD36 / CBS 7987 / NCPF 3949 / NRRLY-17841) (Yeast), UniProt B9W6M3); assay: blockers of CaCl2-induced CDRE-lacZ signaling – S. cerevisiae, luminescence, secondary, dose response (AID 2388); assay type: functional, cell-based;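 further: yeast reporter cells carrying a calcineurin-responsive lacZ construct stimulated with calcium chloride; luminescent beta-galactosidase reporter signal in whole cells rather than isolated phosphatase activity; potency for inhibition where a drop in reporter signal means calcineurin blockade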
Serine/threonine-protein phosphatase, sequence (B9W6M3 whole entry): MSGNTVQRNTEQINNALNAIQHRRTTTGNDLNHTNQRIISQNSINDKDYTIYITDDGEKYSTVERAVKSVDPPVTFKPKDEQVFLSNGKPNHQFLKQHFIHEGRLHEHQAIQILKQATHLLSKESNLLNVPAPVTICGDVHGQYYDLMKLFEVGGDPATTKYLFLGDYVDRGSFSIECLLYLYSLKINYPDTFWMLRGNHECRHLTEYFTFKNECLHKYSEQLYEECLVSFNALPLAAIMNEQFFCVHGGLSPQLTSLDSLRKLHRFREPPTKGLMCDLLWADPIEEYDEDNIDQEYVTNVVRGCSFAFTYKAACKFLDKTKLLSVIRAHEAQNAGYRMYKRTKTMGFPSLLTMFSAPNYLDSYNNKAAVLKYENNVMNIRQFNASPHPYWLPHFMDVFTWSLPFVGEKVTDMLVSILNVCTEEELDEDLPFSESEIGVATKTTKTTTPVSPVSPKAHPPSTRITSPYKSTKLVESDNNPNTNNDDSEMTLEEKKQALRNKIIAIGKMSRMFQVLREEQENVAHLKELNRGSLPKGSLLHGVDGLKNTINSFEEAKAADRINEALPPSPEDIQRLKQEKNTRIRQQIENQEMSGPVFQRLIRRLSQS

[5] = target: T2, Ubiquitin-conjugating enzyme E2 N (Homo sapiens, UniProt P61088); assay type: functional
T2 sequence (P61088 whole entry): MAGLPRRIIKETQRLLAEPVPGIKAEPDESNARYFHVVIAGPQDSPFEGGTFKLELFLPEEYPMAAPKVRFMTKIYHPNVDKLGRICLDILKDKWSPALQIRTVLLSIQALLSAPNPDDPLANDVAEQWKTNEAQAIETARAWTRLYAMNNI

[6] = target: T3, Bcl-2-related protein A1 (Mus musculus, UniProt Q07440); assay type: functional;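 further: confirmatory dose–response counterscreen on Bfl-1, used to check hits from a UBC13 polyubiquitin inhibitor campaign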
T3 sequence (Q07440 whole entry): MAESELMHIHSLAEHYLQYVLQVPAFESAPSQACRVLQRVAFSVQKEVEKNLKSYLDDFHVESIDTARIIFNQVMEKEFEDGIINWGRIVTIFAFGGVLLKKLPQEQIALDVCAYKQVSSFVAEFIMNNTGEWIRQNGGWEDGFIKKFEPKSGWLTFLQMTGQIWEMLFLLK

[7] = target: ATP-dependent molecular chaperone HSP82 (Candida albicans (strain WO-1) (Yeast), UniProt C4YTQ8); assay: steroid-induced GRE reporter decrease in yeast – S. cerevisiae, luminescence, Hsp90 inhibitor project, dose response (AID 2400); assay type: functional, cell-based;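 further: beta-galactosidase luminescence from glucocorticoid response element reporter as proxy for Hsp90 function; inhibitor potency where signal loss means Hsp90 inhibition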
ATP-dependent molecular chaperone HSP82, sequence (C4YTQ8 whole entry): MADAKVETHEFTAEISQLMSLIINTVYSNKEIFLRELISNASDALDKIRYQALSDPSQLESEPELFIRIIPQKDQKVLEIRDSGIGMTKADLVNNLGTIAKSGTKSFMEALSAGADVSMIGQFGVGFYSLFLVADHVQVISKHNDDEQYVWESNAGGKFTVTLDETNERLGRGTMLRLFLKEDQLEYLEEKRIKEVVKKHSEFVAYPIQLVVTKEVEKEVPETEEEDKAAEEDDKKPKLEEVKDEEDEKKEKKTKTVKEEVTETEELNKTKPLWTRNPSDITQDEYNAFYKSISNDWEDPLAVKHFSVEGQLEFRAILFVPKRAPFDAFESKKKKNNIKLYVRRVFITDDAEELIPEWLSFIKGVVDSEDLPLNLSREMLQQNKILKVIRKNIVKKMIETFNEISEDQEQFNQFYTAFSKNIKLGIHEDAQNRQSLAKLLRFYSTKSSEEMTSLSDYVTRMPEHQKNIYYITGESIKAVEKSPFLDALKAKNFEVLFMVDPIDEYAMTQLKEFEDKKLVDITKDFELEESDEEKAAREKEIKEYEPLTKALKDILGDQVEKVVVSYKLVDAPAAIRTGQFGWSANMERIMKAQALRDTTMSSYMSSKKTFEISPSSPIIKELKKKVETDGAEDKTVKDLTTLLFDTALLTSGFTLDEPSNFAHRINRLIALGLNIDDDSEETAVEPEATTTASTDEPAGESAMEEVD

[8] = target: T2, Ubiquitin-conjugating enzyme E2 N; assay type: functional; remark: listed apart in the source

Hexokinase-1, sequence (P19367 whole entry, the tested form may be a part): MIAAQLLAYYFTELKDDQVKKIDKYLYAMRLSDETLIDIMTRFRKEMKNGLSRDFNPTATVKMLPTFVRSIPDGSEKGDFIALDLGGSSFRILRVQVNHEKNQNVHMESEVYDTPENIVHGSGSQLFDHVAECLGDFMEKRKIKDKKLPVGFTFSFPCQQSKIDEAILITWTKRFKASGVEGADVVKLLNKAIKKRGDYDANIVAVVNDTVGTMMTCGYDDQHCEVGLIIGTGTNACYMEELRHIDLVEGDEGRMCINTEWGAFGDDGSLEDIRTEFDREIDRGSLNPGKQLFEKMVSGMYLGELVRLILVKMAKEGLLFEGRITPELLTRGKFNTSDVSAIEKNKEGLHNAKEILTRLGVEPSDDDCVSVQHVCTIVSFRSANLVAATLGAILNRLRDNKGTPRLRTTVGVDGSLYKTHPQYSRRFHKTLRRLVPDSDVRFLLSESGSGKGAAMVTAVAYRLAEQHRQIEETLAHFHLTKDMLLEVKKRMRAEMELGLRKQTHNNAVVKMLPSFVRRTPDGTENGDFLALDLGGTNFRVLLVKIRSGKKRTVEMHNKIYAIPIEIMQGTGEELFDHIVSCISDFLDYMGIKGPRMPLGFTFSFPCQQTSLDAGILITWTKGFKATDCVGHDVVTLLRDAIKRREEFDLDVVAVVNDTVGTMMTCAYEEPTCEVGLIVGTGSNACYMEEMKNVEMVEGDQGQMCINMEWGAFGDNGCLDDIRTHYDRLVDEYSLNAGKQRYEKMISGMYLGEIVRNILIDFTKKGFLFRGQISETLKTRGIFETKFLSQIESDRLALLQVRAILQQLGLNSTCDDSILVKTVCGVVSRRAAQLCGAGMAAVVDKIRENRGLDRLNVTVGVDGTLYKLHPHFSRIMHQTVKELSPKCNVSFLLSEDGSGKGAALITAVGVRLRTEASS

In the case of O=c1c2ccccc2nc(/C=C/c2cccnc2)n1-c1ccccc1, the IC50 [1] was > 80 µM (inactive) and the IC50 [2] was > 80 µM (inactive).
In the case of CCOC(=O)N1CCN(c2nnc(-c3ccc(C)cc3)c3ccccc23)CC1, the EC50 [3] was 1.04 µM (active).
With Fc1cccc(-n2cc(-c3ccccc3)c3c(=S)[nH]cnc32)c1 the EC50 [4] was > 180 µM (inactive), the IC50 [5] was > 20 µM (inactive) and the IC50 [6] was > 20 µM (inactive). For the same molecule, the EC50 [7] was 19.2 µM (active) and the IC50 [8] was 9.98 µM (active).
